Here are results for 32 compounds from the supplement of paper PMC11616607.

Structures are written as SMILES.

The test system of one test is Ovsaho. In words: drug sensitivity score (DSS) from 5-point dose-response viability curve (DSS (area-under-curve based score)); higher = more sensitive (stronger growth inhibition or killing); extreme values may be limits of the assay. The following applies: exposure time: 72 h; concentration range: 5 concentrations over 10,000-fold range. The essentials: (§1)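 Ovarian cancer and normal ovarian cell lines were tested in 384-well plates. Drugs were acoustically dispensed (Echo 550) in DMSO or water at five concentrations spanning a 10,000-fold range, then 1,500 cells per well were added and incubated 3 days at 37°C, 5% CO2. Viability was read by CellTiter-Glo luminescence on a PHERAstar FS. Drug sensitivity score was derived per cell line and drug with Breeze software; higher means more sensitive, zero means no response.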
On to `CC(C)(C)C[C@@H]1N[C@@H](C(=O)N[C@H]2CC[C@H](O)CC2)[C@H](c2cccc(Cl)c2F)[C@]12C(=O)Nc1cc(Cl)ccc12`, for which the drug sensitivity score turned out to be 1.4. Still for that read-out and setting: as for `CC(C)Oc1ccc(C(=O)N[C@H](CNC(=O)CN(C)C)Cc2ccc(-c3cn4cccc([C@H](C)O)c4n3)cc2)cc1Cl`, the figure is 10.2; as for `CC[C@@H]1[C@H](F)C(=O)N[C@@H]1COc1nccc2cc(C(N)=O)c(OC)cc12`, 2.3. The same measure, in the same setting: to `CCc1cncnc1N1CCN(Cc2nc3ccc(C(F)(F)F)cc3[nH]2)CC1` belongs 1.2; to `CCn1c(-c2nonc2N)nc2cnc(Oc3cccc(NC(=O)c4ccc(OCCN5CCOCC5)cc4)c3)cc21`, 0.9; to `CN(C)CC#Cc1ccc(OCCCc2sc(N3CCc4cccc(C(=O)Nc5nc6ccccc6s5)c4C3)nc2C(=O)O)c(F)c1`, 10.4.

`CN(c1ncccc1CNc1nc(Nc2ccc3c(c2)CC(=O)N3)ncc1C(F)(F)F)S(C)(=O)=O`: the drug sensitivity score was determined as 5.7. As for `CNC(=O)c1ccc(C)c(-n2c(C)cc(OCc3ccc(F)cc3F)c(Br)c2=O)c1`, the drug sensitivity score turned out to be 0. Still for that read-out and setting: as for `CNS(=O)(=O)Nc1nccc(Cc2c(C)c3ccc(Oc4ncccn4)cc3oc2=O)c1F`, the figure is 0.3; as for `CNc1ncc2cc(-c3cc(NC(=O)NCCC(C)(C)C)c(F)cc3C)c(C)nc2n1`, 8.9. `CO[C@@H](C)Cn1c(=O)n(C)c2cnc3ccc(-c4cncc(C(C)(C)O)c4)cc3c21` returned a drug sensitivity score of 10.9. The same measure, in the same setting: as for `COc1ccc(Cn2ccc3ccc(C(=O)NO)cc32)cc1`, the figure is 2.6; as for `C[C@@H](Oc1ccc2[nH]nc(/C=C/c3cnn(CCO)c3)c2c1)c1c(Cl)cncc1Cl`, 4.9; as for `C[C@@H]1CN(CC(=O)Nc2ccc3c(c2)Cc2cccc(-c4cc(=O)cc(N5CCOCC5)o4)c2S3)C[C@H](C)O1`, 3.4. Take `C[C@H]1C[C@@H](n2c(Nc3ccc(OC(F)(F)F)cc3)nc3cc(CCC(=O)O)ccc32)CC(C)(C)C1`: the drug sensitivity score was 0. Still for that read-out and setting: to `Cc1c(-c2c(-c3ccc(F)o3)sc3ncnc(O[C@H](Cc4ccccc4OCc4ccnn4CC(F)(F)F)C(=O)O)c23)ccc(OCCN2CCN(C)CC2)c1Cl` belongs 0; to `Cc1c(Cn2c(C)nc3c(C(=O)O)cc(N4CCOCC4)cc32)cccc1C(F)(F)F`, 3.8; to `Cc1ccc(C(=O)N(CCCN)[C@@H](c2oc3cc(Cl)ccc3c(=O)c2Cc2ccccc2)C(C)C)cc1`, 4.1. The same measure, in the same setting: as for `Cc1cccc(CC(=O)N2CCc3c2ccc(-c2cn(C)c4ncnc(N)c24)c3F)n1`, the figure is 0; as for `Cc1nc(Nc2n[nH]c3c2CN(C(=O)N[C@H](CN(C)C)c2ccccc2)C3(C)C)c2sccc2n1`, 9. In turn, `Cc1ncc(Cl)cc1NCc1ccc(C(=O)N[C@@H](CC2CCCC2)C(=O)NC2CC2)s1` came in with a drug sensitivity score of 0.

`Cn1cc(-c2ccc(F)c(C(F)(F)F)c2)nc1C1CCN(c2ncnc3[nH]ncc23)CC1` came in with a drug sensitivity score of 0.

The compound `Cn1cc(C2=Nc3cc(NC(=O)C(N)C4CCCCC4)cc4c3C2=CNNC4=O)cn1` (stereo not drawn) displayed a drug sensitivity score of 6.8. For the compound `N#Cc1ccc(COC[C@H]2O[C@@H](n3c(NCc4ccc(Cl)c(Cl)c4)nc4c(N)ncnc43)[C@H](O)[C@@H]2O)cc1`, the drug sensitivity score came to 4.5.

The compound `NCC(=O)Nc1ccc(-n2nc(C(F)(F)F)cc2-c2ccc3c(ccc4ccccc43)c2)cc1` returned a drug sensitivity score of 4.9. Still for that read-out and setting: as for `NC[C@@](O)(c1ccc(Cl)cc1)c1ccc(-c2cn[nH]c2)cc1`, the figure is 0; as for `Nc1nccc(-c2c(-c3ccc(F)cc3)ncn2C2CCCCC2)n1`, 0; as for `Nc1ncnc2c1c(COc1cccc(Cl)c1)nn2C1CCOCC1`, 0.

The compound `O=C(NOC[C@H](O)CO)c1ccc(F)c(F)c1Nc1ccc(I)cc1F` showed a drug sensitivity score of 13.5. The same measure, in the same setting: as for `O=C(Nc1ccc2[nH]nc(-c3ccncc3)c2c1)[C@@H]1CCN(CC(=O)N2CCN(c3ccc(-c4ncccn4)cc3)CC2)C1`, the figure is 14.1. In the case of `O=C(O)c1ccc(-c2c[nH]c3ncc(-c4ccccc4)cc23)cc1C1CCCC1`, the drug sensitivity score turned out to be 0. Same read-out and setting: as for `O=C(O)c1ccc(CN2CCC(CN[C@@H]3C[C@H]3c3ccccc3)CC2)cc1`, the figure is 0.

For a further test, the system named is OVCAR8. The test is described as above. The settings on record: exposure time: 72 h; concentration range: 5 concentrations over 10,000-fold range. The essentials: as §1
Turning to `CC(C)(C)C[C@@H]1N[C@@H](C(=O)N[C@H]2CC[C@H](O)CC2)[C@H](c2cccc(Cl)c2F)[C@]12C(=O)Nc1cc(Cl)ccc12`, the drug sensitivity score turned out to be 0.4. On the same count and under the same terms, to `CC(C)Oc1ccc(C(=O)N[C@H](CNC(=O)CN(C)C)Cc2ccc(-c3cn4cccc([C@H](C)O)c4n3)cc2)cc1Cl` belongs 14; to `CC[C@@H]1[C@H](F)C(=O)N[C@@H]1COc1nccc2cc(C(N)=O)c(OC)cc12`, 0.7; to `CCc1cncnc1N1CCN(Cc2nc3ccc(C(F)(F)F)cc3[nH]2)CC1`, 3.1. Still for that read-out and setting: to `CCn1c(-c2nonc2N)nc2cnc(Oc3cccc(NC(=O)c4ccc(OCCN5CCOCC5)cc4)c3)cc21` belongs 4.4; to `CN(C)CC#Cc1ccc(OCCCc2sc(N3CCc4cccc(C(=O)Nc5nc6ccccc6s5)c4C3)nc2C(=O)O)c(F)c1`, 0. In the case of `CN(c1ncccc1CNc1nc(Nc2ccc3c(c2)CC(=O)N3)ncc1C(F)(F)F)S(C)(=O)=O`, the drug sensitivity score worked out at 4.3.

`CNC(=O)c1ccc(C)c(-n2c(C)cc(OCc3ccc(F)cc3F)c(Br)c2=O)c1`: the drug sensitivity score was 0. Still for that read-out and setting: as for `CNS(=O)(=O)Nc1nccc(Cc2c(C)c3ccc(Oc4ncccn4)cc3oc2=O)c1F`, the figure is 0; as for `CNc1ncc2cc(-c3cc(NC(=O)NCCC(C)(C)C)c(F)cc3C)c(C)nc2n1`, 9.9.

With `CO[C@@H](C)Cn1c(=O)n(C)c2cnc3ccc(-c4cncc(C(C)(C)O)c4)cc3c21`, the drug sensitivity score was determined as 9.5.

The compound `COc1ccc(Cn2ccc3ccc(C(=O)NO)cc32)cc1` showed a drug sensitivity score of 3.7. On the same count and under the same terms, as for `C[C@@H](Oc1ccc2[nH]nc(/C=C/c3cnn(CCO)c3)c2c1)c1c(Cl)cncc1Cl`, the figure is 3.4; as for `C[C@@H]1CN(CC(=O)Nc2ccc3c(c2)Cc2cccc(-c4cc(=O)cc(N5CCOCC5)o4)c2S3)C[C@H](C)O1`, 1.9.

Compound `C[C@H]1C[C@@H](n2c(Nc3ccc(OC(F)(F)F)cc3)nc3cc(CCC(=O)O)ccc32)CC(C)(C)C1` returned a drug sensitivity score of 0.1.

`Cc1c(-c2c(-c3ccc(F)o3)sc3ncnc(O[C@H](Cc4ccccc4OCc4ccnn4CC(F)(F)F)C(=O)O)c23)ccc(OCCN2CCN(C)CC2)c1Cl`: the drug sensitivity score was determined as 0.
